Values quoted from earlier work in patent US20160128954A1 (Raptor Pharmaceuticals Inc., priority 2014, published 2016).

Key:
[1] = in vivo
[2] = tested on: mice with the gene mutation for Huntington's disease (HD); conditions: mouse, in vivo
[3] = tested on: circulating white blood cells
HD patients = conditions: five patients over 2 weeks

Compound | crossing of the blood-brain barrier [1] | effect on tremors and life span [2] | time to decrease in leukocyte cystine ([3]; delivery into the small intestine (WO 2007/089670)) | depletion of intracellular cystine ([3]; taken regularly, measured in circulating white blood cells) | efficacy in HD (HD patients)
NCCSSCCN [cystamine, Cystamine] | does not, or corsses less efficiently than cysteamine | alleviate tremors and prolong life |  |  | 
NCCS [cysteamine, Cysteamine (HS—CH2—CH2—NH2)] | crosses the blood-brain barrier |  | within an hour | up to 90% | no efficacy
